# Measured values from article PMC13198257, “An aerosolized dual-action autotaxin inhibitor-PPARγ agonist for the treatment of pulmonary fibrosis” (Cell Reports Medicine, 2026).
# Tested on: lung gene expression
# Assay: RNA sequencing of lung tissue (BLM/EL244 vs BLM)
# Format: in vivo, mouse
# Settings: lung tissue, BLM/EL244 vs BLM
# Description: RNA quality was assessed using an Agilent TapeStation 4150 with the High Sensitivity […] ScreenTape (Agilent), according to the manufacturer’s protocols. For library preparation, the QuantSeq 3’mRNA-Seq Library Prep Kit (Lexogen) was used according to manufacturer’s instructions. Briefly, 500 ng of RNA from each sample was used for first-strand synthesis, followed by RNA template removal, and second-strand synthesis initiated by random primers. In-line barcodes were introduced at this step, and this was followed by magnetic bead-based purification. The resulting libraries were amplified for 15 cycles and re-purified, with quantity and quality assessed on a Qubit 4 Fluorometer with the Invitrogen Qubit dsDNA HS Assay and an Agilent Tapestation 4150 with the High Sensitivity D1000 assay kit, respectively. The quantified libraries were pooled equimolarly; 50ng of total library mix was used for Adapter Conversion PCR Amplification using the Universal Library Conversion Kit (App-A), Version: V1.0 (MGI Tech Co., Ltd.), according to the manufacturer’s instructions.
# The quantity and quality of the purified adapter conversion PCR (AC-PCR) product were evaluated on a Qubit 4 Fluorometer with the Invitrogen Qubit dsDNA HS Assay and on an Agilent Tapestation 4150 with the High Sensitivity D1000 assay kit, respectively. This was followed by DNA denaturation, Single-Strand Circularisation, Enzymatic Digestion, Enzymatic Digestion Product Cleanup and Quality Control steps on 1 pmol of AC-PCR product, according to the Universal Library Conversion Kit (App-A) User Manual (Version: A3).
# Finally, 60 fmol of ssCirDNA were used for DNB preparation and sequencing on a DNBSEQ-G400 platform at the BSRC Alexander Fleming Genomics Facility, using a G400 App-A FCS SE100 High-throughput Sequencing Set (MGI Tech Co., Ltd.), according to the manufacturer’s instructions.
# Alignment of the FASTQ files was performed against the mouse genome build mm10 using a custom Bash script.[143] Read counting on the 3′ UTRs and differential expression analysis were conducted using the metaseqR2 bioconductor package.[144] Genes corresponding to the following biotypes were excluded: polymorphic_pseudogene, processed_transcript, pseudogene, IG_V_pseudogene, misc_RNA, IG_C_gene, IG_J_gene, IG_D_gene, IG_LV_gene, TR_V_gene, TR_V_pseudogene, TEC, and processed_pseudogene. Gene counts were normalized with DESEQ[145] through metaseqR2. Genes with more than 10 counts in at least 50% of the samples were kept for further processing. For differential expression analysis, the PANDORA algorithm[146] was used to estimate a meta p-value integrating the results from the DESEQ, DESEQ2,[147] edgeR,[148] limma,[149] NBPSeq,[150] and NOISeq[151] algorithms. All additional parameters were set to default values.
# Pathway enrichment analysis was performed for the Gene Ontology Biological process (BP) and Molecular Function (MF) terms through GeneCodis 4.[152] The volcano plots, scatterplots, Venn diagrams, and dot plots were generated using the ggplot2 Bioconductor package.
structure (smiles),measurement,value
"O=C1NC(=O)C(Cc2ccc(OCCC3CCN(C(=O)OCc4cc(Cl)cc(Cl)c4)CC3)cc2)S1 (stereo not shown) [EL244, 3,5-dichlorobenzyl 4-(2-(4-((2,4-dioxothiazolidin-5-yl)methyl)phenoxy)ethyl)piperidine-1-carboxylate]",Prrx2 nFC,0.30
same,Prss23 log2 nFC,0.67
same,Prss23 nFC,1.60
same,Ptprb log2 nFC,0.67
same,Ptprb nFC,1.59
same,Rad51 log2 nFC,-1.90
same,Rad51 nFC,0.27
same,Rad54l log2 nFC,-1.87
same,Rad54l nFC,0.27
same,Rbm33 log2 nFC,0.58
same,Rbm33 nFC,1.50
same,Rcan1 log2 nFC,-0.84
same,Rcan1 nFC,0.56
same,Rcn3 log2 nFC,-0.66
same,Rcn3 nFC,0.63
same,Retnla log2 nFC,-2.32
same,Retnla nFC,0.20
same,Rgs16 log2 nFC,-2.59
same,Rgs16 nFC,0.17
same,Rnaset2a log2 nFC,-0.70
same,Rnaset2a nFC,0.62
same,Rps27l log2 nFC,-0.70
same,Rps27l nFC,0.62
same,Rrm1 log2 nFC,-0.81
same,Rrm1 nFC,0.57
same,Rrm2 log2 nFC,-2.56
same,Rrm2 nFC,0.17
same,S100a11 log2 nFC,-0.60
same,S100a11 nFC,0.66
same,Saa3 log2 nFC,-2.75
same,Saa3 nFC,0.15
same,Sash1 log2 nFC,0.59
same,Sash1 nFC,1.50
same,Scarb1 log2 nFC,-0.72
same,Scarb1 nFC,0.61
same,Scgb3a2 log2 nFC,0.65
same,Scgb3a2 nFC,1.56
same,Selenop log2 nFC,0.58
same,Selenop nFC,1.50
same,Sfrp1 log2 nFC,-1.73
same,Sfrp1 nFC,0.30
same,Sftpc log2 nFC,0.62
same,Sftpc nFC,1.54
same,Sgo2a log2 nFC,-1.68
same,Sgo2a nFC,0.31
same,Sh3pxd2b log2 nFC,-0.78
same,Sh3pxd2b nFC,0.58
same,Shcbp1 log2 nFC,-1.60
same,Shcbp1 nFC,0.33
same,Sirpa log2 nFC,-0.71
same,Sirpa nFC,0.61
same,Ska1 log2 nFC,-2.52
same,Ska1 nFC,0.17
same,Slc7a11 log2 nFC,-1.50
same,Slc7a11 nFC,0.35
same,Slc36a1 log2 nFC,-0.81
same,Slc36a1 nFC,0.57
same,Slc39a1 log2 nFC,-0.63
same,Slc39a1 nFC,0.65
same,Snrnp40 log2 nFC,-0.60
same,Snrnp40 nFC,0.66
same,Snrpd1 log2 nFC,-0.64
same,Snrpd1 nFC,0.64
same,Socs3 log2 nFC,-0.62
same,Socs3 nFC,0.65
same,Sox4 log2 nFC,-0.80
same,Sox4 nFC,0.57
same,Sox9 log2 nFC,-1.42
same,Sox9 nFC,0.37
same,Spag5 log2 nFC,-1.65
same,Spag5 nFC,0.32
same,Sparc log2 nFC,-0.74
same,Sparc nFC,0.60
same,Spc25 log2 nFC,-2.02
same,Spc25 nFC,0.25
same,Spp1 log2 nFC,-1.50
same,Spp1 nFC,0.35
same,Ssc5d log2 nFC,-1.71
same,Ssc5d nFC,0.31
same,Ssh2 log2 nFC,0.66
same,Ssh2 nFC,1.58
same,Sting1 log2 nFC,-0.77
same,Sting1 nFC,0.59
same,Stmn1 log2 nFC,-0.70
same,Stmn1 nFC,0.62
same,Stxbp6 log2 nFC,0.64
same,Stxbp6 nFC,1.56
same,Tacc2 log2 nFC,0.66
same,Tacc2 nFC,1.57
same,Taf10 log2 nFC,-0.59
same,Taf10 nFC,0.67
same,Tceal9 log2 nFC,-0.69
same,Tceal9 nFC,0.62
same,Tcf19 log2 nFC,-1.42
same,Tcf19 nFC,0.37
same,Tfdp1 log2 nFC,-0.74
same,Tfdp1 nFC,0.60
same,Tgfbi log2 nFC,-0.68
same,Tgfbi nFC,0.62
same,Tgif1 log2 nFC,-0.75
same,Tgif1 nFC,0.60
same,Thbs4 log2 nFC,-2.34
same,Thbs4 nFC,0.20
same,Thoc6 log2 nFC,-0.81
same,Thoc6 nFC,0.57
same,Timm44 log2 nFC,-0.72
same,Timm44 nFC,0.61
same,Timp1 log2 nFC,-2.30
same,Timp1 nFC,0.20
same,Tk1 log2 nFC,-2.01
same,Tk1 nFC,0.25
same,Tmem37 log2 nFC,-0.82
same,Tmem37 nFC,0.57
same,Tmem252 log2 nFC,-0.70
same,Tmem252 nFC,0.62
same,Tmsb10 log2 nFC,-0.58
same,Tmsb10 nFC,0.67
same,Tnc log2 nFC,-2.35
same,Tnc nFC,0.20
same,Tnfrsf1b log2 nFC,-0.70
same,Tnfrsf1b nFC,0.61
same,Tnip3 log2 nFC,-1.47
same,Tnip3 nFC,0.36
same,Tns1 log2 nFC,0.67
same,Tns1 nFC,1.59
same,Top2a log2 nFC,-1.97
same,Top2a nFC,0.25
same,Tpx2 log2 nFC,-2.92
same,Tpx2 nFC,0.13
same,Trem2 log2 nFC,-1.42
same,Trem2 nFC,0.37
same,Trip13 log2 nFC,-1.42
same,Trip13 nFC,0.37
same,Tspan7 log2 nFC,0.64
same,Tspan7 nFC,1.56
same,Tubb5 log2 nFC,-0.77
same,Tubb5 nFC,0.59
same,Tubb6 log2 nFC,-0.75
same,Tubb6 nFC,0.59
same,Txnip log2 nFC,0.65
same,Txnip nFC,1.56
same,Tyrobp log2 nFC,-0.69
same,Tyrobp nFC,0.62
same,Ube2c log2 nFC,-1.80
same,Ube2c nFC,0.29
same,Uhrf1 log2 nFC,-1.72
same,Uhrf1 nFC,0.30
same,Utrn log2 nFC,0.68
same,Utrn nFC,1.60
same,Vangl2 log2 nFC,-0.76
same,Vangl2 nFC,0.59
same,Xcl1 log2 nFC,-1.81
same,Xcl1 nFC,0.29
same,Zfp46 log2 nFC,-0.70
same,Zfp46 nFC,0.62
same,Zranb3 log2 nFC,-1.43
same,Zranb3 nFC,0.37
same,Zwilch log2 nFC,-1.54
same,Zwilch nFC,0.34
same,log2 nFC 1500009L16Rik,-1.23
same,log2 nFC 2200002D01Rik,-0.88
same,log2 nFC AA467197,-1.39
same,log2 nFC Adamts2,-1.00
same,log2 nFC Areg,-1.03
same,log2 nFC Arhgap11a,-1.13
same,log2 nFC Armcx4,-1.32
same,log2 nFC Asf1b,-1.14
same,log2 nFC Bcl2a1b,-1.15
same,log2 nFC Bcl2a1d,-1.29
same,log2 nFC Bub1b,-1.19
same,log2 nFC C1qtnf5,-0.87
same,log2 nFC C1qtnf6,-1.38
same,log2 nFC Ccdc8,-1.11
same,log2 nFC Ccl9,-1.37
same,log2 nFC Ccl17,-0.95
same,log2 nFC Cd68,-0.99
same,log2 nFC Cd72,-1.01
same,log2 nFC Cd248,-1.25
same,log2 nFC Cd300c2,-0.89
same,log2 nFC Cdca2,-1.33
same,log2 nFC Cenpa,-1.31
same,log2 nFC Cenpw,-1.33
same,log2 nFC Cercam,-1.37
same,log2 nFC Ch25h,-0.91
same,log2 nFC Cilp,-1.39
same,log2 nFC Clcn5,-0.92
same,log2 nFC Clec4a2,-1.26
same,log2 nFC Clec4n,-1.39
same,log2 nFC Clec5a,-1.14
same,log2 nFC Clec11a,-1.00
same,log2 nFC Clec12a,-0.91
same,log2 nFC Col1a2,-1.41
same,log2 nFC Col8a1,-1.19
same,log2 nFC Col12a1,-0.90
same,log2 nFC Col15a1,-1.10
same,log2 nFC Col16a1,-0.92
same,log2 nFC Cotl1,-0.88
same,log2 nFC Csf2rb2,-0.99
same,log2 nFC Cstb,-0.95
same,log2 nFC Ctsk,-0.98
same,log2 nFC Ctss,-0.92
same,log2 nFC Cx3cr1,-1.17
same,log2 nFC Cyp7b1,-1.41
same,log2 nFC Dbn1,-0.88
same,log2 nFC Dclk1,-0.86
same,log2 nFC Diaph3,-1.13
same,log2 nFC Dio2,-1.39
same,log2 nFC Dok2,-1.37
same,log2 nFC Dut,-0.89
same,log2 nFC Egr2,-0.89
same,log2 nFC Epha4,-0.89
same,log2 nFC F10,-1.11
same,log2 nFC Fam20c,-1.06
same,log2 nFC Fbn1,-1.03
same,log2 nFC Fcgr1,-1.30
same,log2 nFC Fcgr2b,-1.08
same,log2 nFC Fcrls,-1.35
same,log2 nFC Fen1,-1.00
same,log2 nFC Fgf13,-1.40
same,log2 nFC Fkbp10,-1.25
same,log2 nFC Fndc1,-1.11
same,log2 nFC Fscn1,-1.22
same,log2 nFC Fst,-1.05
same,log2 nFC Fstl1,-1.21
same,log2 nFC Gas2l3,-1.32
same,log2 nFC Gm13889,-0.85
same,log2 nFC Gm25380,-1.01
same,log2 nFC Gm42674,-1.18
same,log2 nFC Gm49339,-0.94
